This note sets out measurements from BindingDB's records for doi:10.1021/jm00078a018 (Merck Research Laboratories, 1994).

The nature of this experiment: Inhibition of binding of [125I]-CCK-8 to the cholecystokinin type B receptor.
With `COC(=O)[C@H]1CCCN1OC(=O)CN1C(=O)C(NC(=O)Nc2cccc(OC)c2)N=C(c2ccccc2)c2ccccc21` (stereo partly specified) [1-(2-{3-[3-(3-Methoxy-phenyl)-ureido]-2-oxo-5-phenyl-2,3-dihydro-benzo[e][1,4]diazepin-1-yl}-acetoxy)-pyrrolidine-2-carboxylic acid methyl ester], the IC50 – broadly, the concentration needed to halve the response being measured – stood at 9.7 nM. For `CN1C(=O)C(NC(=O)Nc2ccc(Cl)c(Cl)c2)N=C(c2ccccc2)c2ccccc21` (stereo unspecified) [1-(3,4-Dichloro-phenyl)-3-(1-methyl-2-oxo-5-phenyl-2,3-dihydro-1H-benzo[e][1,4]diazepin-3-yl)-urea] the value was 67 nM; for `Cc1ccc(NC(=O)NC2N=C(c3ccccc3)c3ccccc3N(C)C2=O)cc1C` (stereo unspecified) [1-(3,4-Dimethyl-phenyl)-3-(1-methyl-2-oxo-5-phenyl-2,3-dihydro-1H-benzo[e][1,4]diazepin-3-yl)-urea], 22 nM; for `COc1cc(NC(=O)NC2N=C(c3ccccc3)c3ccccc3N(C)C2=O)cc(OC)c1` (stereo unspecified) [1-(3,5-Dimethoxy-phenyl)-3-(1-methyl-2-oxo-5-phenyl-2,3-dihydro-1H-benzo[e][1,4]diazepin-3-yl)-urea], 2300 nM. The molecule `Cc1cc(C)cc(NC(=O)NC2N=C(c3ccccc3)c3ccccc3N(C)C2=O)c1` (stereo unspecified) [1-(3,5-Dimethyl-phenyl)-3-(1-methyl-2-oxo-5-phenyl-2,3-dihydro-1H-benzo[e][1,4]diazepin-3-yl)-urea] gave an IC50 of 267 nM. The figure for `CC(=O)c1cccc(NC(=O)NC2N=C(c3ccccc3)c3ccccc3N(C)C2=O)c1` (stereo unspecified) [1-(3-Acetyl-phenyl)-3-(1-methyl-2-oxo-5-phenyl-2,3-dihydro-1H-benzo[e][1,4]diazepin-3-yl)-urea] is 4.8 nM; for `CN1C(=O)C(NC(=O)Nc2cccc(Br)c2)N=C(c2ccccc2)c2ccccc21` (stereo unspecified) [1-(3-Bromo-phenyl)-3-(1-methyl-2-oxo-5-phenyl-2,3-dihydro-1H-benzo[e][1,4]diazepin-3-yl)-urea] it is 5 nM; for `CN1C(=O)C(NC(=O)Nc2cccc(Cl)c2)N=C(c2ccccc2)c2ccccc21` (stereo unspecified) [1-(3-Chloro-phenyl)-3-(1-methyl-2-oxo-5-phenyl-2,3-dihydro-1H-benzo[e][1,4]diazepin-3-yl)-urea] it is 9.8 nM. For `CN1C(=O)C(NC(=O)Nc2cccc(C#N)c2)N=C(c2ccccc2)c2ccccc21` (stereo unspecified) [1-(3-Cyano-phenyl)-3-(1-methyl-2-oxo-5-phenyl-2,3-dihydro-1H-benzo[e][1,4]diazepin-3-yl)-urea] the value was 27 nM; for `C#Cc1cccc(NC(=O)NC2N=C(c3ccccc3)c3ccccc3N(C)C2=O)c1` (stereo unspecified) [1-(3-Ethynyl-phenyl)-3-(1-methyl-2-oxo-5-phenyl-2,3-dihydro-1H-benzo[e][1,4]diazepin-3-yl)-urea], 22 nM.

`CN1C(=O)C(NC(=O)Nc2cccc(F)c2)N=C(c2ccccc2)c2ccccc21` (stereo unspecified) [1-(3-Fluoro-phenyl)-3-(1-methyl-2-oxo-5-phenyl-2,3-dihydro-1H-benzo[e][1,4]diazepin-3-yl)-urea] showed an IC50 of 54 nM.

With `COc1cccc(NC(=O)NC2N=C(c3ccccc3)c3ccccc3N(C)C2=O)c1` (stereo unspecified) [1-(3-Methoxy-phenyl)-3-(1-methyl-2-oxo-5-phenyl-2,3-dihydro-1H-benzo[e][1,4]diazepin-3-yl)-urea], the IC50 came to 3 nM. Against the preceding molecule, the IC50 is about 18-fold lower. The figure for `COc1cccc(NC(=O)NC2N=C(c3ccccc3)c3ccccc3N(CC(=O)N3CCCC3)C2=O)c1` (stereo unspecified) [1-(3-Methoxy-phenyl)-3-[2-oxo-1-(2-oxo-2-pyrrolidin-1-yl-ethyl)-5-phenyl-2,3-dihydro-1H-benzo[e][1,4]diazepin-3-yl]-urea] is 0.24 nM; for `COc1cccc(NC(=O)NC2N=C(c3ccccc3)c3ccccc3N(CC(=O)N3CCN(C)CC3)C2=O)c1` (stereo unspecified) [1-(3-Methoxy-phenyl)-3-{1-[2-(4-methyl-piperazin-1-yl)-2-oxo-ethyl]-2-oxo-5-phenyl-2,3-dihydro-1H-benzo[e][1,4]diazepin-3-yl}-urea] it is 4.4 nM; for `CN1C(=O)C(NC(=O)Nc2ccc(Br)cc2)N=C(c2ccccc2)c2ccccc21` (stereo unspecified) [1-(4-Bromo-phenyl)-3-(1-methyl-2-oxo-5-phenyl-2,3-dihydro-1H-benzo[e][1,4]diazepin-3-yl)-urea] it is 48 nM. Molecule `O=C(Nc1ccc(Cl)cc1)NC1N=C(c2ccccc2)c2ccccc2NC1=O` (stereo unspecified) [1-(4-Chloro-phenyl)-3-(2-oxo-5-phenyl-2,3-dihydro-1H-benzo[e][1,4]diazepin-3-yl)-urea] came in with an IC50 of 270 nM. For the molecule `CN1C(=O)[C@H](NC(=O)Nc2ccc(Cl)cc2)N=C(c2ccccc2)c2ccccc21` [1-(4-Chloro-phenyl)-3-((R)-1-methyl-2-oxo-5-phenyl-2,3-dihydro-1H-benzo[e][1,4]diazepin-3-yl)-urea], the IC50 was determined as 20 nM.

`CN1C(=O)[C@@H](NC(=O)Nc2ccc(Cl)cc2)N=C(c2ccccc2)c2ccccc21` [1-(4-Chloro-phenyl)-3-((S)-1-methyl-2-oxo-5-phenyl-2,3-dihydro-1H-benzo[e][1,4]diazepin-3-yl)-urea]: the IC50 is 1100 nM. With `O=C(Nc1ccc(Cl)cc1)NC1N=C(c2ccccc2)c2ccccc2N(C[C@@H](O)CO)C1=O` (stereo partly specified) [1-(4-Chloro-phenyl)-3-[1-(2,3-dihydroxy-propyl)-2-oxo-5-phenyl-2,3-dihydro-1H-benzo[e][1,4]diazepin-3-yl]-urea], the IC50 is 104 nM.

Regarding `O=C(Nc1ccc(Cl)cc1)NC1N=C(c2ccccc2)c2ccccc2N(C[C@@H](O)CN2CCCC2)C1=O` (stereo partly specified) [1-(4-Chloro-phenyl)-3-[1-(2-hydroxy-3-pyrrolidin-1-yl-propyl)-2-oxo-5-phenyl-2,3-dihydro-1H-benzo[e][1,4]diazepin-3-yl]-urea], the IC50 is 300 nM. In turn, `CCN(CC)C[C@H](O)CN1C(=O)C(NC(=O)Nc2ccc(Cl)cc2)N=C(c2ccccc2)c2ccccc21` (stereo partly specified) [1-(4-Chloro-phenyl)-3-[1-(3-diethylamino-2-hydroxy-propyl)-2-oxo-5-phenyl-2,3-dihydro-1H-benzo[e][1,4]diazepin-3-yl]-urea] came in with an IC50 of 410 nM.

In turn, `O=C(Nc1ccc(Cl)cc1)NC1N=C(c2ccccc2)c2ccccc2N(Cc2nnn[nH]2)C1=O` (stereo unspecified) [1-(4-Chloro-phenyl)-3-[2-oxo-5-phenyl-1-(1H-tetrazol-5-ylmethyl)-2,3-dihydro-1H-benzo[e][1,4]diazepin-3-yl]-urea] registered an IC50 of 490 nM. The IC50 values of the last two molecules are within 1.5-fold of each other. `CN1CCN(C(=O)CN2C(=O)C(NC(=O)Nc3ccc(Cl)cc3)N=C(c3ccccc3)c3ccccc32)CC1` (stereo unspecified) [1-(4-Chloro-phenyl)-3-{1-[2-(4-methyl-piperazin-1-yl)-2-oxo-ethyl]-2-oxo-5-phenyl-2,3-dihydro-1H-benzo[e][1,4]diazepin-3-yl}-urea] came in with a concentration for half-maximal inhibition (IC50) of 0.8 nM. With `CN1C(=O)C(NC(=O)Nc2ccc(F)cc2)N=C(c2ccccc2)c2ccccc21` (stereo unspecified) [1-(4-Fluoro-phenyl)-3-(1-methyl-2-oxo-5-phenyl-2,3-dihydro-1H-benzo[e][1,4]diazepin-3-yl)-urea], the IC50 was determined as 66 nM.

`COc1ccc(NC(=O)NC2N=C(c3ccccc3)c3ccccc3N(C)C2=O)cc1` (stereo unspecified) [1-(4-Methoxy-phenyl)-3-(1-methyl-2-oxo-5-phenyl-2,3-dihydro-1H-benzo[e][1,4]diazepin-3-yl)-urea] yielded an IC50 of 26 nM.

As to `CN1C(=O)C(NC(=O)Nc2ccc(N)nc2)N=C(c2ccccc2)c2ccccc21` (stereo unspecified) [1-(6-Amino-pyridin-3-yl)-3-(1-methyl-2-oxo-5-phenyl-2,3-dihydro-1H-benzo[e][1,4]diazepin-3-yl)-urea], the IC50 was 500 nM. The figure for `CN1C(=O)C(NC(=O)Nc2ccc(Cl)nc2)N=C(c2ccccc2)c2ccccc21` (stereo unspecified) [1-(6-Chloro-pyridin-3-yl)-3-(1-methyl-2-oxo-5-phenyl-2,3-dihydro-1H-benzo[e][1,4]diazepin-3-yl)-urea] is 46 nM; for `COc1ccc(NC(=O)NC2N=C(c3ccccc3)c3ccccc3N(C)C2=O)cn1` (stereo unspecified) [1-(6-Methoxy-pyridin-3-yl)-3-(1-methyl-2-oxo-5-phenyl-2,3-dihydro-1H-benzo[e][1,4]diazepin-3-yl)-urea] it is 460 nM; for `CN1C(=O)C(NC(=O)Nc2ccc3c(c2)OCO3)N=C(c2ccccc2)c2ccccc21` (stereo unspecified) [1-Benzo[1,3]dioxol-5-yl-3-(1-methyl-2-oxo-5-phenyl-2,3-dihydro-1H-benzo[e][1,4]diazepin-3-yl)-urea] it is 26 nM.

In the case of `CN1C(=O)C(NC(=O)NCc2ccccc2)N=C(c2ccccc2)c2ccccc21` (stereo unspecified) [1-Benzyl-3-(1-methyl-2-oxo-5-phenyl-2,3-dihydro-1H-benzo[e][1,4]diazepin-3-yl)-urea], the IC50 came out at 860 nM.

Take `CN1C(=O)C(NC(=O)Nc2cccc(-c3ccccc3)c2)N=C(c2ccccc2)c2ccccc21` (stereo unspecified) [1-Biphenyl-3-yl-3-(1-methyl-2-oxo-5-phenyl-2,3-dihydro-1H-benzo[e][1,4]diazepin-3-yl)-urea]: the IC50 came out at 112 nM. For the molecule `CN1C(=O)C(NC(=O)NC2CCCCC2)N=C(c2ccccc2)c2ccccc21` (stereo unspecified) [1-Cyclohexyl-3-(1-methyl-2-oxo-5-phenyl-2,3-dihydro-1H-benzo[e][1,4]diazepin-3-yl)-urea], the IC50 came to 3000 nM. For the molecule `CN1C(=O)C(NC(=O)Nc2ccc3c(c2)CCC3)N=C(c2ccccc2)c2ccccc21` (stereo unspecified) [1-Indan-5-yl-3-(1-methyl-2-oxo-5-phenyl-2,3-dihydro-1H-benzo[e][1,4]diazepin-3-yl)-urea], the IC50 was determined as 2.7 nM. For `Cc1cccc(NC(=O)NC2N=C(c3ccccc3)c3ccccc3N(Cc3ncc[nH]3)C2=O)c1` (stereo unspecified) [1-[1-(1H-Imidazol-2-ylmethyl)-2-oxo-5-phenyl-2,3-dihydro-1H-benzo[e][1,4]diazepin-3-yl]-3-m-tolyl-urea] the value was 59 nM. `Cc1cccc(NC(=O)NC2N=C(c3ccccc3)c3ccccc3N(Cc3cnc[nH]3)C2=O)c1` (stereo unspecified) [1-[1-(1H-Imidazol-4-ylmethyl)-2-oxo-5-phenyl-2,3-dihydro-1H-benzo[e][1,4]diazepin-3-yl]-3-m-tolyl-urea] displayed an IC50 of 7.9 nM. In turn, `COc1cccc(NC(=O)NC2N=C(c3ccccc3)c3ccccc3N(CCN(C)C)C2=O)c1` (stereo unspecified) [1-[1-(2-Dimethylamino-ethyl)-2-oxo-5-phenyl-2,3-dihydro-1H-benzo[e][1,4]diazepin-3-yl]-3-(3-methoxy-phenyl)-urea] came in with a half-maximal inhibitory concentration (IC50) of 192 nM. This IC50 lies about 24-fold higher than the previous one.
